Results on 57 compounds are retold here after paper PMC12040169 (PLOS Biology, 2025).

The data set is described as follows: in vitro. The conditions noted are these: human, hela cells.

On to `CC(=O)Oc1ccc(-c2cccc(C(=O)NCCO)c2)cc1` [CBK263829], for which the viability (usually a read-out of living cells in per cent, often relative to untreated cells) at 28.5 h, 10 µM (% viability) was 105%.

Regarding `Brc1cnc(OCc2ccccc2)nc1OCc1ccccc1` [CBK261274], for the setting “% viability”, the viability at 28.5 h, 10 µM was 101%.

With `Cn1c(=O)c(C(=O)Nc2ccc(Cl)cc2)cc2cccnc21` [CBK287741], the viability at 28.5 h, 10 µM (% viability) worked out at 94.4%.

Consider `C[C@H]1[C@@H]2[C@@H](O)C([C@H](C)C(=O)N3CCCC3)CC[C@@]2(C)CC[C@@H]1NC(=O)C1CC1` (stereo partly drawn) [CBK289447], for which the viability at 28.5 h, 10 µM (% viability) was 85%.

On to `OCCN1CC2(CCN(Cc3cccc4cccnc34)CC2)c2ccccc21` [CBK137014], for which the viability at 28.5 h, 10 µM (% viability) came out at 95.1%.

Regarding `CN(CC(=O)Nc1sc2c(c1C#N)CCCC2)Cc1cnn(C)c1` [CBK304618], the viability at 28.5 h, 10 µM (% viability) is 92.8%.

In the case of `CN1CCC2(CC1)CC(NC(=O)C1CCCCC1)c1ccccc1O2` (stereo not drawn) [CBK282635], the viability at 28.5 h, 10 µM (% viability) was 91.6%.

For `COc1cc2c(cc1OC)C1(CCN(C(=O)Nc3ccc(F)cc3F)CC1)NC(=O)C2` [CBK047264], for the setting “% viability”, the viability at 28.5 h, 10 µM is 84.8%.

For the compound `O=C(O)CCN/C(=N\S(=O)(=O)c1ccccc1)c1ccccc1` [CBK266111], under “% viability”, the viability at 28.5 h, 10 µM came to 92.2%.

As to `O=S(=O)(Nc1ccc(-c2nnn[nH]2)cc1)c1cc(Cl)c(Cl)s1` [CBK154745], the viability at 28.5 h, 10 µM (% viability) is 116%.

As to `Cc1n[nH]c(C)c1CNC(=O)c1cc2ccc(F)cc2[nH]1` [CBK283147], the viability at 28.5 h, 10 µM (% viability) came out at 89.4%.

As for `Cc1cc(NS(=O)(=O)c2ccc(Nc3nc(-c4ccc(Cl)cc4Cl)cs3)cc2)no1` [CBK267298], the viability at 28.5 h, 10 µM (% viability) was found to be 104%.

Take `COc1ccccc1NC(=O)C1CCN(C(=O)OC(C)(C)C)CC1` [CBK296746]: the viability at 28.5 h, 10 µM (% viability) came out at 90.5%.

Take `COc1c(O)ccc(/C=N/NC(=O)c2cccnc2)c1[N+](=O)[O-]` [CBK262197]: the viability at 28.5 h, 10 µM (% viability) stood at 112%.

Take `COc1ccc(NC(=O)CSc2nsc(SCC(=O)Nc3ccc(OC)cc3)n2)cc1` [CBK008918]: under “% viability”, the viability at 28.5 h, 10 µM was 92.5%.

In the case of `Fc1ccc(-c2nccnc2NCc2ccncc2)cc1Cl` [CBK037422], the viability at 28.5 h, 10 µM (% viability) is 95.5%.

Regarding `Cc1oc2ccc(O)cc2c1C(=O)NC(C)(C)CN1CCCC(C)C1` (stereo not drawn) [CBK282601], for the setting “% viability”, the viability at 28.5 h, 10 µM amounted to 105%.

On to `Cc1cc(C)cc(NC2=N[C@H]3[C@@H](O)[C@H](O)C[C@H](C(=O)N4CCCCC4)[C@H]3S2)c1` [CBK288952], for which, where the note is “% viability”, the viability at 28.5 h, 10 µM worked out at 90%.

In the case of `CC(C)c1cc(C(=O)N2CCCCCC2c2ccn(C)n2)no1` (stereo not drawn) [CBK283048], the viability at 28.5 h, 10 µM (% viability) came out at 85.3%.

On to `OC(c1ccncc1)C(O)c1ccncc1` (stereo not drawn) [CBK024254], for which, for the setting “% viability”, the viability at 28.5 h, 10 µM was 87.1%.

For the compound `O=C(CN1CCC(c2ccccc2F)CC1)NC1CCCC1` [CBK283551], the viability at 28.5 h, 10 µM (% viability) was 97.4%.

With `FC(F)(F)c1cnc(N2CCNCC2)c(Cl)c1` [CBK013400], the viability at 28.5 h, 10 µM (% viability) turned out to be 92.9%.

Turning to `O=C(COc1ccc(S(=O)(=O)N2CCCC2)cc1Cl)Nc1ccc2c(c1)OCCO2` [CBK268559], for the setting “% viability”, the viability at 28.5 h, 10 µM was 116%.

Regarding `CCCN1C(=S)N(CCO)C(=O)/C1=C/C=C1/Oc2ccccc2N1CCC(=O)O` [CBK261400], the viability at 28.5 h, 10 µM (% viability) was 88.6%.

For the compound `CS(=O)(=O)N(Cc1ccccc1)c1ccc(C(=O)N/N=C/c2ccccc2C(F)(F)F)cc1` [CBK262711], the viability at 28.5 h, 10 µM (% viability) was determined as 88%.

`O=C(CSC1=NCCS1)Nc1ccc(Cl)cn1` [CBK057917]: the viability at 28.5 h, 10 µM (% viability) amounted to 84%.

Turning to `COc1ccc(-c2nc(Nc3cccc(C(F)(F)F)c3)sc2CC(=O)O)cc1OC` [CBK131693], the viability at 28.5 h, 10 µM (% viability) turned out to be 97.9%.

As for `O=C(CO)N1CC2(CCN(CCS(=O)(=O)c3ccccc3)CC2)c2ccccc21` [CBK131505], the viability at 28.5 h, 10 µM (% viability) was found to be 97.9%.

As to `COc1ccc(CCC(=O)NCC(c2cccs2)N2CCOCC2)cc1` (stereo not drawn) [CBK304674], the viability at 28.5 h, 10 µM (% viability) was determined as 107%.

For the compound `CCNc1nc(-c2ccc3[nH]ccc3c2)cn2ccnc12` [CBK038002], the viability at 28.5 h, 10 µM (% viability) stood at 99.5%.

`Cc1ccccc1CSCC(=O)Nc1ccc(S(=O)(=O)N2CCCCC2)cc1` [CBK264006]: under “% viability”, the viability at 28.5 h, 10 µM was found to be 103%.

On to `Cc1cc(Cl)c(S(=O)(=O)N2CCN(c3ccccn3)CC2)cc1OCC(N)=O` [CBK266553], for which the viability at 28.5 h, 10 µM (% viability) is 117%.

With `C/C(=N\N=C1\N=C(O)C(CC(=O)O)S1)c1ccco1` (stereo not drawn) [CBK021973], the viability at 28.5 h, 10 µM (% viability) was 96.8%.

As for `CC(CO)(CO)NCc1ccc(-c2ccccc2)cc1` [CBK268325C], where the note is “% viability”, the viability at 28.5 h, 10 µM was determined as 78.9%.

Regarding `O=S(=O)(Nc1nnc(C(F)(F)F)s1)c1ccc(-c2cc(C(F)(F)F)on2)s1` [CBK062019], the viability at 28.5 h, 10 µM (% viability) amounted to 91.1%.

With `CCCCOc1ccc(C(=O)OC(Cc2cccc3ccccc23)CN(CC)CC)cc1` (stereo not drawn) [CBK011965C], the viability at 28.5 h, 10 µM (% viability) was determined as 87.7%.

For the compound `COc1ccccc1Cn1ncc2c1CCCC2NC(=O)C1CCC1` (stereo not drawn) [CBK282895], where the note is “% viability”, the viability at 28.5 h, 10 µM stood at 110%.

Turning to `O=C(O)c1n[s+][n-]c1-c1cc([N+](=O)[O-])cc([N+](=O)[O-])c1O` [CBK261584], the viability at 28.5 h, 10 µM came to 97.2%.

In the case of `COc1ccc(Cl)cc1CN(C)C(=O)c1ccc(C)[nH]c1=O` [CBK305794], where the note is “% viability”, the viability at 28.5 h, 10 µM was 92.9%.

Turning to `O=C(NCCc1nc2ccccc2[nH]1)Nc1ccccc1` [CBK261803], the viability at 28.5 h, 10 µM (% viability) was determined as 103%.

In the case of `CN1CCC(N2CCC[C@H]2c2nc(-c3ccnc(N4CCOCC4)c3)no2)CC1` [CBK288880], the viability at 28.5 h, 10 µM (% viability) was 94.4%.

As for `O=C(CN1C(=O)N2CCCN=C2c2ccccc21)N1CCCCCC1` [CBK284399], the viability at 28.5 h, 10 µM (% viability) is 96.4%.

Turning to `CC(=O)NCC(=O)N1C[C@@H]2CCCCN(Cc3cccc(F)c3)[C@@H]2C1` [CBK285515], the viability at 28.5 h, 10 µM (% viability) was determined as 90.1%.

Take `Cc1ccc(NC(=O)C2CC(=O)Nc3nc4ccccc4n32)cc1` (stereo not drawn) [CBK288134]: the viability at 28.5 h, 10 µM (% viability) was determined as 113%.

Regarding `COCCCN1C(=O)C(O)=C(C(=O)c2ccc(Cl)cc2)C1c1cccc(O)c1` (stereo not drawn) [CBK264892], the viability at 28.5 h, 10 µM (% viability) worked out at 105%.

On to `Cc1cc2ccccc2n2c(=O)n(CC(=O)NC3CCCC3)nc12` [CBK283884], for which the viability at 28.5 h, 10 µM (% viability) was 79.7%.

`CN(C)Cc1cnn(-c2ccc(Oc3ccccc3)cc2)n1` [CBK112865]: where the note is “% viability”, the viability at 28.5 h, 10 µM stood at 100%.

For `CNCc1cn(C[C@H]2CC3CCN2C[C@@H]3C(=O)N2CCCC2)nn1` (stereo partly drawn) [CBK289087], the viability at 28.5 h, 10 µM (% viability) was 104%.

On to `COc1ccc(-c2cccc(N3CCN(CCN4CCCC4)CC3)n2)cc1OC` [CBK037680], for which, for the setting “% viability”, the viability at 28.5 h, 10 µM came out at 84.9%.

Turning to `COc1cccc(CNn2cnnc2S)c1OCc1ccccc1` [CBK265781], where the note is “% viability”, the viability at 28.5 h, 10 µM came to 96.3%.

With `CCn1c2ccccc2n2c(SCC(=O)O)nnc12` [CBK266869], the viability at 28.5 h, 10 µM (% viability) was 91.4%.

`COc1ccccc1-c1cc(C(F)F)nc(S)c1C#N` [CBK288358]: where the note is “% viability”, the viability at 28.5 h, 10 µM is 88.8%.

Turning to `COc1ccccc1CNCc1ccccc1OC` [CBK262168], the viability at 28.5 h, 10 µM (% viability) was 106%.

For the compound `CC(=O)Nc1ccc(NC(=O)[C@H]2CCCC[C@H]2C(=O)O)cc1` [CBK287073], the viability at 28.5 h, 10 µM (% viability) is 99.6%.

For the compound `c1cncc(COc2nc3ccccc3nc2N2CCCC2)c1` [CBK115762], where the note is “% viability”, the viability at 28.5 h, 10 µM is 93.4%.

As for `COc1cc2ccccc2cc1C(=O)Nc1nnc(-c2ccncc2)o1` [CBK287432], the viability at 28.5 h, 10 µM (% viability) turned out to be 93.1%.

As to `Cc1c(Br)c(C(F)(F)F)nn1CC(=O)N1CCCC1` [CBK071473], where the note is “% viability”, the viability at 28.5 h, 10 µM is 92.9%.
